In patent publication US20130053357A1, “SKIN IRRITATION SUPPRESSANT AND TRANSDERMAL PREPARATION” (HISAMITSU PHARMACEUTICAL CO., INC., priority 2010, published 2013):
Like-named read-outs stand apart in the source and are kept apart here.

Experiments:
[1] = test system: human three-dimensional culture epidermal model (LabCyte EPI-MODEL); assay: Suppression by cholesterol of skin irritation mediator production induced by drugs in a human epidermal cell (Experiment 2); format: cell-based; details: 1% by mass of cholesterol; summary of Table 2
Procedure: (§1) A human three-dimensional epidermal culture model obtained by multilayer-culturing a human normal epidermal cell (LabCyte EPI-MODEL, manufactured by Japan Tissue Engineering Co., Ltd.) was used. LabCyte is a cultured skin cultured in a transwell. For the experiment, LabCyte was used with the transwell.
(§2) The experiment was conducted as below. First, LabCyte was put into a 24-well assay plate. Then, 1 ml of assay medium (Japan Tissue Engineering Co., Ltd.) was added so that it was brought into contact with a bottom surface of the cultured skin in each well of the 24-well assay plate, and was pre-cultured in an incubator with 5% of carbon dioxide concentration at 37° C. for 1 hour.
(§3) The test solutions of each group were added to the cells, the culture solutions incubated for 48 hours were collected, and a production amount of each skin irritation mediator was measured. The skin irritation mediator was measured by using a commercially available ELISA kit (manufactured by R&D Systems, Inc.). A relative production amount of the skin irritation mediator in each test substance was calculated as below, when the production amount of the skin irritation mediator in the PMA Only Group was set to 100.
Cholesterol was used as a test substance. The drugs shown in Table 2 were used as the cutaneous irritants.
Tests were conducted by the following group composition. • Drug Only Group: A group with addition of only the drug dispersed in a vehicle, as a test solution. Concentrations of the drugs are shown in Table 2. • Drug Plus Cholesterol Group: A group with addition of the drug and 1% by mass of cholesterol which were dispersed in a vehicle, as a test solution.
The experiment was conducted while other conditions were set in the same manner as in Experiment 1.

[2] = test system: human three-dimensional culture epidermal model (LabCyte EPI-MODEL); assay: Production of skin irritation mediators induced by PMA in human three-dimensional epidermal culture model (Experiment 1); format: cell-based; details: for activity at 1 %: Homo sapiens, test substance 1 mass % with PMA in olive oil, 48 hours
Source text: Changes in production amounts of skin irritation mediators by test substances were examined when cutaneous irritants were caused to act on a human three-dimensional culture epidermal model.
as §1
As test substances, there were used cholesterol (manufactured by Wako Pure Chemical Industries, Ltd.), β-sitosterol (manufactured by TAMA BIOCHEMICAL CO., LTD.), α-spinasterol (manufactured by ChromaDex, Inc.), ergosterol (manufactured by Wako Pure Chemical Industries, Ltd.), campesterol (manufactured by TAMA BIOCHEMICAL CO., LTD.), glycyrrhizin (manufactured by Wako Pure Chemical Industries, Ltd.), glycyrrhetinic acid (manufactured by Wako Pure Chemical Industries, Ltd.), ginsenoside (manufactured by Wako Pure Chemical Industries, Ltd.), squalene (manufactured by Wako Pure Chemical Industries, Ltd.), squalane (manufactured by Tokyo Chemical Industry Co., Ltd.) and lanosterol (manufactured by ChromaDex, Inc.), which are candidates of a skin irritation suppressant.
As skin irritants, Phorbol 12-Myristate 13-Acetate (PMA, manufactured by Wako Pure Chemical Industries, Ltd.) was used. In addition, as vehicle, olive oil (manufactured by Wako Pure Chemical Industries, Ltd.) was used.
Experiments were conducted by the following group composition. • PMA Only Group: A group with addition of only 0.00001 mol of PMA dispersed in a vehicle, as a test solution. • Test Substance Group: A group with addition of 0.00001 mol of PMA and the test substance which were dispersed in a vehicle, as a test solution.
as §2
Next, a cell survival rate was measured by the MTT method after causing the test solutions of each group to act. Specifically, 50 μL of the test solution of each group was added to the surface of the LabCyte after preculture, was cultured in the incubator with 5% of carbon dioxide concentration at 37° C. for 48 hours, then was transferred to the assay medium comprising 0.5 mg/ml of MTT reagent, and was cultured in the incubator with 5% of carbon oxide level at 37° C. for 3 hours. Then, LabCyte was immersed in 0.3 ml of an isopropanol solution, and the produced blue-purple formazan was extracted for 2 hours. After extraction, an absorbance at 570 nm was measured by a 96 microplate reader. The cell survival rate was calculated as below.
Cell survival rate (%)=(absorbance of Test Substance Group)/(absorbance of PMA Only Group)×100
Subsequently, a production amount of the skin irritation mediator at a test substance concentration with 80% or more of cell survival rate was measured. As skin irritation mediators, PGE2, IL-1α, IL-6, IL-8 were measured.
as §3
Relative production amount=(production amount of the mediator in Test Substance Group)/(production amount of the mediator in PMA Only Group)×100

[3] = test system: croton oil-induced mouse ear swelling; assay: Suppression of croton oil-induced mouse ear swelling reaction (Experiment 3); format: in vivo
Source text: <Suppression of Croton Oil-Induced Mouse Ear Swelling Reaction by the Test Substances>
Suppression of mouse ear swelling was examined through the use of croton oil (Wako Pure Chemical Industries, Ltd.) as a swelling inducer. A 7-week-old ddY female mouse (SPF) was subjected to an experiment. As test substances, cholesterol, glycyrrhizin, glycyrrhetinic acid, squalene, ergosterol, squalane and lanosterol were used. As a vehicle, acetone (Wako Pure Chemical Industries, Ltd.) was used.
Experiments were conducted by the following group composition. • Positive Control Group: A group which received only the vehicle as a primary test solution, and one hour after, received a 2% croton oil solution as a secondary test solution. • Test Substance Group: A group in which only the vehicle was administered as a primary test solution, and one hour after, a 2% croton oil solution including 1% by mass of test substance was administered as a secondary test solution.
An inhibition ratio of ear swelling was calculated as below. In this test, a […] inflammation model is used to examine immediate swelling reactions. In accordance with the group composition, 25 μL of the primary test solution was uniformly coated on back sides of both ears in an etherize mouse, and one hour after, 25 μL of the secondary test solution was uniformly coated in accordance with the group composition. Prior to coating of the secondary test solution, a thickness of auricle was measured by DIAL […] GAUGE (OZAKI MFG CO., LTD.). Furthermore, the secondary test solution was administered, and 6 hours after, the auricular thickness was measured in the same way as mentioned above, and an increased amount of the auricular thickness was set by deducting the thickness measured prior to administration of the secondary test solution. The inhibition ratio of ear swelling was calculated as below.
Inhibition ratio of ear swelling (%)=(increased amount of auricular thickness in Test Substance Group−increased amount of auricular thickness in Negative Control Group)/(increased amount of auricular thickness in Positive Control Group−increased amount of auricular thickness in Negative Control Group)×100

[4] = test system: human three-dimensional culture epidermal model (LabCyte EPI-MODEL); assay: Suppression by cholesterol of skin irritation mediator production induced by asenapine and LADA in a human epidermal cell (Experiment 6); format: cell-based; details: 1% by mass of cholesterol; summary of Tables 5 and 6
Procedure: as §1, §2, §3
Cholesterol was used as a test substance. Asenapine and lauric acid diethanolamide (LADA) were used as the cutaneous irritants.
Tests were conducted by the following group composition. • Solvent Group: A group including only vehicle. Olive oil was used as a vehicle. • Skin Irritant Only Group: A group with addition of only cutaneous irritant dispersed in a vehicle, as a test solution. The concentration of asenapine maleate to be added was 0.6% (asenapine group), and that of LADA was 0.03% (LADA group). • Skin Irritant Plus Cholesterol Group: A group with addition of the drug and 1% by mass of cholesterol which were dispersed in a vehicle, as a test solution.
The experiment was conducted while other conditions were set in the same manner as Experiment 1.

[5] = test system: shaved back of the rabbit; details: in vivo
Procedure: <Examination of Reduction in Skin Irritation in a Rabbit by Cholesterol, −1>
A 19-week-old JW female rabbit was subjected to an experiment.
Subsequently, the transdermal preparation of each group was applied to a shaved back of the rabbit a single time for 24 hours. Erythema and swelling on the applied site were evaluated 1, 24 and 48 hours after peel-off of the transdermal preparation in accordance with the judgment standard of Draize et al. and an average value of the skin primary irritation index (PII) was calculated.

With `CC(C)CCC[C@@H](C)[C@H]1CC[C@H]2[C@@H]3CC=C4C[C@@H](O)CC[C@]4(C)[C@H]3CC[C@]12C` [Cholesterol, cholesterol] the “Effect of cholesterol on drug-induced production of the skin irritation mediator (in words)” value [1] was “exhibited effects of suppressing of production of the skin irritation mediator on a wide range of drugs”, the activity at 1 % ([2]; read-out: Relative Production Amount of Skin Irritation Mediator when Production Amount in PMA Only Group is Set to 100: IL-1α) was 50% and the activity at 1 % ([2]; read-out: Relative Production Amount of Skin Irritation Mediator when Production Amount in PMA Only Group is Set to 100: IL-6) was 0%. For the same compound, the activity at 1 % ([2]; read-out: Relative Production Amount of Skin Irritation Mediator when Production Amount in PMA Only Group is Set to 100: IL-8) was 65%, the activity at 1 % ([2]; read-out: Relative Production Amount of Skin Irritation Mediator when Production Amount in PMA Only Group is Set to 100: PGE2) was 17% and the “Effect on skin irritation mediator production by PMA (in words)” value ([2]; summary of Table 1) was “exhibited effects of suppressing the skin irritation mediator production by PMA”. The “Inhibition Ratio Of Ear Swelling” value ([3]; ddY female mouse, 1% by mass of test substance in 2% croton oil solution, 25 μL on ears, auricular thickness 6 hours after) was 70.6%, the “Effect on croton oil-induced mouse ear swelling reaction (in words)” value ([3]; summary of Table 3) was “suppress croton oil-induced mouse ear swelling reaction” and the “Effect of cholesterol on skin irritation mediator production due to asenapine and LADA (in words)” value [4] was “exhibited effects of suppressing the skin irritation mediator production on skin irritation due to asenapine and LADA”. The “Skin primary irritation index (PII), average value” [5] was “reduces skin irritation due to the drug”.
